Where a name gives a salt, the structure may show the parent alone. Read-outs that look alike come from different tables or passages of the source.
Columns and labels:
[1] = system: erythroid progenitor cells (EPCs); test: Fetal hemoglobin (HbF) ELISA in day 7 erythroid progenitor cells; format: cell-based, human; conditions: Homo sapiens, Erythroid progenitor cell, HbF ELISA, day 7 EPCs, 5 days; read-out: EPC ELISA (pEC50 category) (converted);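 note: for fetal hemoglobin induction normalized to vehicle-treated cells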
Method in brief: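 Read-out was OD450 from an HRP/TMB sandwich ELISA on lysates, normalized to DMSO-only control wells. Thawed day 7 EPCs from human marrow CD34+ cells had been treated for 5 days at 37° C with Compound A, 22 concentrations […].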

DNMT1 = DNMT1 (Homo sapiens, UniProt P26358); test: DNMT1 biochemical activity, breaklight assay and/or SPA assay
[2] = binned activity in either the breaklight or the SPA assay
[3] = binned activity in either the breaklight or the SPA assay, read-out: DNMT1 BioChemical (pIC50 category) (converted)

DNMT1, sequence (P26358 whole entry, looked up): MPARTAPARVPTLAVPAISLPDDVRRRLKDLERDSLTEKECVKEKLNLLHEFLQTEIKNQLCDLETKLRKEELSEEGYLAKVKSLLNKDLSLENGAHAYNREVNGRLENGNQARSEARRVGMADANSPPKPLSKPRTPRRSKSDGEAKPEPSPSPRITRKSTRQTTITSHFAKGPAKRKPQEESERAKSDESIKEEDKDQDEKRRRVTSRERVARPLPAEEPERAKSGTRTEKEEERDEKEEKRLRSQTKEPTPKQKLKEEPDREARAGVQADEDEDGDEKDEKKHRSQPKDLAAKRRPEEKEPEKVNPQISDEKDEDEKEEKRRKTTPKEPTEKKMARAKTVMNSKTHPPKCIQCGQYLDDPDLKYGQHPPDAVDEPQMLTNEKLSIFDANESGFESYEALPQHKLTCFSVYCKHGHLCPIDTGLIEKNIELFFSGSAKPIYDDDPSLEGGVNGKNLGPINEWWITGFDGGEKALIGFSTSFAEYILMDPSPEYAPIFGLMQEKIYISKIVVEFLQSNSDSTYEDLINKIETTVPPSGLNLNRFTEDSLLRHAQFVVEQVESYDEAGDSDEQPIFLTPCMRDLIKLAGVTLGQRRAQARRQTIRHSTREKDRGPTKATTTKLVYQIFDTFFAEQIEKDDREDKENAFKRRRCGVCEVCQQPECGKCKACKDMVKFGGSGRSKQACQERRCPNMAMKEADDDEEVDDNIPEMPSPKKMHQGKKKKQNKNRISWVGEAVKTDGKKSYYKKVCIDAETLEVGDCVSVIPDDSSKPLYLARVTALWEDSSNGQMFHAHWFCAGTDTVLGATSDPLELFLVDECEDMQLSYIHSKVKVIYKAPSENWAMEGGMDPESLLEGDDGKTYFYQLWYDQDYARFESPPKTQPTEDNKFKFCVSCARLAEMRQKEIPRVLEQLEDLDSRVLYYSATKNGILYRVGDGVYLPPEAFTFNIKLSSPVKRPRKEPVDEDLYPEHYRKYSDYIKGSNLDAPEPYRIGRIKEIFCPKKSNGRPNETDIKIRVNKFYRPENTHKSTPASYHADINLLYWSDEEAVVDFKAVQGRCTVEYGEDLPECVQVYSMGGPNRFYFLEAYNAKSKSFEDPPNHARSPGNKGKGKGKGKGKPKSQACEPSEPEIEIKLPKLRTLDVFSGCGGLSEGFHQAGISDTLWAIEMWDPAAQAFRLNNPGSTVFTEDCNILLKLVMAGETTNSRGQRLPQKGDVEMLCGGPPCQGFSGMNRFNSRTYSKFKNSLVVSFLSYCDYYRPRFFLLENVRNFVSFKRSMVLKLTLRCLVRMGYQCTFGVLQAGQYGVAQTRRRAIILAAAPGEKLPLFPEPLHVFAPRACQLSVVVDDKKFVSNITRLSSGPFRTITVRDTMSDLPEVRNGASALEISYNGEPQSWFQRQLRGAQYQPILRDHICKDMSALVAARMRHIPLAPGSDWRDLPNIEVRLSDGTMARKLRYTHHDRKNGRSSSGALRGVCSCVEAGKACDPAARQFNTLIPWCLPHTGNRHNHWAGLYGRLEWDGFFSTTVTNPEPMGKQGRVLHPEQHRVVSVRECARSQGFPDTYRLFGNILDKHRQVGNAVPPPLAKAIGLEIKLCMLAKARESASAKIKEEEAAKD

Row | EC50 [1] | DNMT1 BioChemical (pIC50 category) (DNMT1; [2]) | IC50 (DNMT1; [3]) | Structure (SMILES) | average pIC50 against DNMT1 (DNMT1; breaklight assay and/or SPA assay, repeated experimental runs) | IC50 (DNMT1; breaklight assay and/or SPA assay, repeated experimental runs, read-out: average pIC50 against DNMT1 (converted))
1 | < 316 nM | D (Category D: ≥6.5) |  | CCc1c(C#N)c(SC(C(N)=O)c2ccccc2)nc(N2CCC(N(C)CC)CC2)c1C#N (centres unmarked) [Example 549, 2-((3,5-dicyano-4-ethyl-6-(4-(ethyl(methyl)amino)piperidin-1-yl)pyridin-2-yl)thio)-2-phenylacetamide] |  | 
2 | < 316 nM | D (Category D: ≥6.5) |  | CCc1c(C#N)c(SC(C(N)=O)c2ccccc2)nc(N2CCC(NCC(C)(C)C)CC2)c1C#N (centres unmarked) [Example 550, 2-((3,5-dicyano-4-ethyl-6-(4-(neopentylamino)piperidin-1-yl)pyridin-2-yl)thio)-2-phenylacetamide] |  | 
3 | < 316 nM | D (Category D: ≥6.5) |  | CCc1c(C#N)c(SC(C(N)=O)c2ccccc2)nc(N2CCC(N(C)CC(C)(C)C)CC2)c1C#N (centres unmarked) [Example 551, 2-((3,5-dicyano-4-ethyl-6-(4-(methyl(neopentyl)amino)piperidin-1-yl)pyridin-2-yl)thio)-2-phenylacetamide] |  | 
4 | < 316 nM | D (Category D: ≥6.5) |  | CCc1c(C#N)c(SC(C(N)=O)c2ccccc2)nc(N2CCC(NC3CC3)CC2)c1C#N (centres unmarked) [Example 552, 2-((3,5-dicyano-6-(4-(cyclopropylamino)piperidin-1-yl)-4-ethylpyridin-2-yl)thio)-2-phenylacetamide] |  | 
5 | < 316 nM | D (Category D: ≥6.5) |  | CCc1c(C#N)c(SC(C(N)=O)c2ccccc2)nc(N2CCC(NCC(F)F)CC2)c1C#N (centres unmarked) [Example 554, 2-((3,5-dicyano-6-(4-((2,2-difluoroethyl)amino)piperidin-1-yl)-4-ethylpyridin-2-yl)thio)-2-phenylacetamide] |  | 
6 | < 316 nM | D (Category D: ≥6.5) |  | CCc1c(C#N)c(SC(C(N)=O)c2ccccc2)nc(N2CCO[C@H](CNCC(C)(C)C)C2)c1C#N (some centres unmarked) [Example 555] |  | 
7 | < 316 nM | D (Category D: ≥6.5) |  | CCc1c(C#N)c(SCc2ccc(N(C)S(C)(=O)=O)cc2)nc(N2CCC(NC(C)C)CC2)c1C#N [Example 556, N-(4-(((3,5-dicyano-4-ethyl-6-(4-(isopropylamino)piperidin-1-yl)pyridin-2-yl)thio)methyl)phenyl)-N-methylmethanesulfonamide] |  | 
8 | < 316 nM | D (Category D: ≥6.5) |  | CCc1c(C#N)c(SCc2ccc(N(C)S(C)(=O)=O)cc2)nc(N2CCC(NCCOC)CC2)c1C#N [Example 557, N-(4-(((3,5-dicyano-4-ethyl-6-(4-((2-methoxyethyl)amino)piperidin-1-yl)pyridin-2-yl)thio)methyl)phenyl)-N-methylmethanesulfonamide] |  | 
9 | < 316 nM | D (Category D: ≥6.5) |  | CCc1c(C#N)c(SC(C(N)=O)c2ccccc2)nc(N2CCOC(CN(C)C)C2)c1C#N (centres unmarked) [Example 558, 2-((3,5-dicyano-6-(2-((dimethylamino)methyl)morpholino)-4-ethylpyridin-2-yl)thio)-2-phenylacetamide] |  | 
10 | < 316 nM | D (Category D: ≥6.5) |  | CCc1c(C#N)c(SC(C(N)=O)c2ccccc2)nc(N2CCOC(CN(CC)CC)C2)c1C#N (centres unmarked) [Example 559, 2-((3,5-dicyano-6-(2-((diethylamino)methyl)morpholino)-4-ethylpyridin-2-yl)thio)-2-phenylacetamide] |  | 
11 | < 316 nM | D (Category D: ≥6.5) |  | CCc1c(C#N)c(SC(C(N)=O)c2ccccc2)nc(N2CCOC(CN3CCCC3)C2)c1C#N (centres unmarked) [Example 560, 2-((3,5-dicyano-4-ethyl-6-(2-(pyrrolidin-1-ylmethyl)morpholino)pyridin-2-yl)thio)-2-phenylacetamide] |  | 
12 | < 316 nM | D (Category D: ≥6.5) |  | CCc1c(C#N)c(SC(C(N)=O)c2ccccc2)nc(N2CCOC(CNC)C2)c1C#N (centres unmarked) [Example 563, 2-((3,5-dicyano-4-ethyl-6-(2-((methylamino)methyl)morpholino)pyridin-2-yl)thio)-2-phenylacetamide] |  | 
13 | < 316 nM |  | < 316 nM | CCc1c(C#N)c(SC(C(N)=O)c2ccccc2)nc(N2CCCC(CN(C)C)C2)c1C#N (centres unmarked) [Example 565, 2-((3,5-dicyano-6-(3-((dimethylamino)methyl)piperidin-1-yl)-4-ethylpyridin-2-yl)thio)-2-phenylacetamide] |  | 
14 | < 316 nM | D (Category D: ≥6.5) |  | CCc1c(C#N)c(SC(C(N)=O)c2ccccc2)nc(N2CCCC(CNC)C2)c1C#N (centres unmarked) [Example 566, 2-((3,5-dicyano-4-ethyl-6-(3-((methylamino)methyl)piperidin-1-yl)pyridin-2-yl)thio)-2-phenylacetamide] |  | 
15 | < 316 nM | D (Category D: ≥6.5) |  | CCc1c(C#N)c(SC(C(N)=O)c2ccccc2)nc(N2CCO[C@@H](CNCC(C)(C)C)C2)c1C#N (stereo partly drawn) [Example 567, 2-((3,5-dicyano-4-ethyl-6-((S)-2-((neopentylamino)methyl)morpholino)pyridin-2-yl)thio)-2-phenylacetamide] |  | 
16 | < 316 nM | D (Category D: ≥6.5) |  | CCc1c(C#N)c(SC(C(N)=O)c2ccccc2)nc(N2CCC[C@@H](CNCC(C)(C)C)C2)c1C#N (stereo partly drawn) [Example 568, 2-((3,5-dicyano-4-ethyl-6-((S)-3-((neopentylamino)methyl)piperidin-1-yl)pyridin-2-yl)thio)-2-phenylacetamide] |  | 
17 | < 316 nM | D (Category D: ≥6.5) |  | CCc1c(C#N)c(SCc2ccc(N(C)S(C)(=O)=O)cc2)nc(N2CCC(NCC(C)(C)C)CC2)c1C#N [Example 569, N-(4-(((3,5-dicyano-4-ethyl-6-(4-(neopentylamino)piperidin-1-yl)pyridin-2-yl)thio)methyl)phenyl)-N-methylmethanesulfonamide] |  | 
18 | < 316 nM | D (Category D: ≥6.5) |  | CCc1c(C#N)c(SCc2ccc(N(C)S(C)(=O)=O)cc2)nc(N(C)CCN2CCCC2)c1C#N [Example 570, N-(4-(((3,5-dicyano-4-ethyl-6-(methyl(2-(pyrrolidin-1-yl)ethyl)amino)pyridin-2-yl)thio)methyl)phenyl)-N-methylmethanesulfonamide] |  | 
19 | < 316 nM | D (Category D: ≥6.5) |  | CCc1c(C#N)c(SCc2ccc(N(C)S(C)(=O)=O)cc2)nc(N2CCOC(CN(C)C)C2)c1C#N (centres unmarked) [Example 571, N-(4-(((3,5-dicyano-6-(2-((dimethylamino)methyl)morpholino)-4-ethylpyridin-2-yl)thio)methyl)phenyl)-N-methylmethanesulfonamide] |  | 
20 | < 316 nM | D (Category D: ≥6.5) |  | CCc1c(C#N)c(SCc2ccc(N(C)S(C)(=O)=O)cc2)nc(N2CCC(NC(=O)C(C)(C)N)CC2)c1C#N [Example 572, 2-amino-N-(1-(3,5-dicyano-4-ethyl-6-((4-(N-methylmethylsulfonamido)benzyl)thio)pyridin-2-yl)piperidin-4-yl)-2-methylpropanamide] |  | 
21 | < 316 nM | D (Category D: ≥6.5) |  | CCc1c(C#N)c(SCc2ccc(N(C)S(C)(=O)=O)cc2)nc(N2CCC(NC3CC3)CC2)c1C#N [Example 573, N-(4-(((3,5-dicyano-6-(4-(cyclopropylamino)piperidin-1-yl)-4-ethylpyridin-2-yl)thio)methyl)phenyl)-N-methylmethanesulfonamide] |  | 
22 | < 316 nM | D (Category D: ≥6.5) |  | CCc1c(C#N)c(SCc2ccc(N(C)S(C)(=O)=O)cc2)nc(N2CCOC(CN3CCCC3)C2)c1C#N (centres unmarked) [Example 574, N-(4-(((3,5-dicyano-4-ethyl-6-(2-(pyrrolidin-1-ylmethyl)morpholino)pyridin-2-yl)thio)methyl)phenyl)-N-methylmethanesulfonamide] |  | 
23 | < 316 nM | D (Category D: ≥6.5) |  | CCc1c(C#N)c(SC(C(N)=O)c2ccccc2)nc(N2CCO[C@@H](CNC(=O)C(C)(C)N)C2)c1C#N (stereo partly drawn) [Example 575, 2-amino-N-(((2S)-4-(6-((2-amino-2-oxo-1-phenylethyl)thio)-3,5-dicyano-4-ethylpyridin-2-yl)morpholin-2-yl)methyl)-2-methylpropanamide] |  | 
24 | < 316 nM |  | < 316 nM | CCc1c(C#N)c(SC(C(N)=O)c2ccccc2)nc(N2CCC[C@@H](CN)C2)c1C#N (stereo partly drawn) [Example 576, 2-((6-((S)-3-(aminomethyl)piperidin-1-yl)-3,5-dicyano-4-ethylpyridin-2-yl)thio)-2-phenylacetamide] |  | 

Row | Structure (SMILES) | EC50 [1] | DNMT1 BioChemical (pIC50 category) (DNMT1; [2]) | IC50 (DNMT1; [3]) | average pIC50 against DNMT1 (DNMT1; breaklight assay and/or SPA assay, repeated experimental runs) | IC50 (DNMT1; breaklight assay and/or SPA assay, repeated experimental runs, read-out: average pIC50 against DNMT1 (converted))
25 | CCc1c(C#N)c(S[C@@H](C(N)=O)c2ccccc2)nc(N2CCO[C@H](CN)C2)c1C#N [Example 561, (R)-2-((6-((R)-2-(aminomethyl)morpholino)-3,5-dicyano-4-ethylpyridin-2-yl)thio)-2-phenylacetamide, Hydrochloride] | < 316 nM | D (Category D: ≥6.5) |  |  | 
26 | CCc1c(C#N)c(SC(C(N)=O)c2ccccc2)nc(N2CCOC(CN)C2)c1C#N (centres unmarked) [Example 562, 2-((6-(2-(aminomethyl)morpholino)-3,5-dicyano-4-ethylpyridin-2-yl)thio)-2-phenylacetamide] | < 316 nM | D (Category D: ≥6.5) |  | > 6.5 | 79.4 nM
27 | CCc1c(C#N)c(SC(C(N)=O)c2ccccc2)nc(N2CCO[C@H](CN)C2)c1C#N (stereo partly drawn) [Example 564, 2-((6-((R)-2-(aminomethyl)morpholino)-3,5-dicyano-4-ethylpyridin-2-yl)thio)-2-phenylacetamide] | < 316 nM | D (Category D: ≥6.5) |  |  | 
